We go through 41 molecules from patent US7928107B2, “Quinazolines useful as modulators of ion channels” (Vertex Pharmaceuticals Incorporated, priority 2004, dated 2011).

Molecules are shown by their SMILES. pIC50: −log10 of the molar value. Where only a bound is given, the exact number is not on record here.

Chain of NaV 1.8 channel (Q9Y5Y9 whole entry): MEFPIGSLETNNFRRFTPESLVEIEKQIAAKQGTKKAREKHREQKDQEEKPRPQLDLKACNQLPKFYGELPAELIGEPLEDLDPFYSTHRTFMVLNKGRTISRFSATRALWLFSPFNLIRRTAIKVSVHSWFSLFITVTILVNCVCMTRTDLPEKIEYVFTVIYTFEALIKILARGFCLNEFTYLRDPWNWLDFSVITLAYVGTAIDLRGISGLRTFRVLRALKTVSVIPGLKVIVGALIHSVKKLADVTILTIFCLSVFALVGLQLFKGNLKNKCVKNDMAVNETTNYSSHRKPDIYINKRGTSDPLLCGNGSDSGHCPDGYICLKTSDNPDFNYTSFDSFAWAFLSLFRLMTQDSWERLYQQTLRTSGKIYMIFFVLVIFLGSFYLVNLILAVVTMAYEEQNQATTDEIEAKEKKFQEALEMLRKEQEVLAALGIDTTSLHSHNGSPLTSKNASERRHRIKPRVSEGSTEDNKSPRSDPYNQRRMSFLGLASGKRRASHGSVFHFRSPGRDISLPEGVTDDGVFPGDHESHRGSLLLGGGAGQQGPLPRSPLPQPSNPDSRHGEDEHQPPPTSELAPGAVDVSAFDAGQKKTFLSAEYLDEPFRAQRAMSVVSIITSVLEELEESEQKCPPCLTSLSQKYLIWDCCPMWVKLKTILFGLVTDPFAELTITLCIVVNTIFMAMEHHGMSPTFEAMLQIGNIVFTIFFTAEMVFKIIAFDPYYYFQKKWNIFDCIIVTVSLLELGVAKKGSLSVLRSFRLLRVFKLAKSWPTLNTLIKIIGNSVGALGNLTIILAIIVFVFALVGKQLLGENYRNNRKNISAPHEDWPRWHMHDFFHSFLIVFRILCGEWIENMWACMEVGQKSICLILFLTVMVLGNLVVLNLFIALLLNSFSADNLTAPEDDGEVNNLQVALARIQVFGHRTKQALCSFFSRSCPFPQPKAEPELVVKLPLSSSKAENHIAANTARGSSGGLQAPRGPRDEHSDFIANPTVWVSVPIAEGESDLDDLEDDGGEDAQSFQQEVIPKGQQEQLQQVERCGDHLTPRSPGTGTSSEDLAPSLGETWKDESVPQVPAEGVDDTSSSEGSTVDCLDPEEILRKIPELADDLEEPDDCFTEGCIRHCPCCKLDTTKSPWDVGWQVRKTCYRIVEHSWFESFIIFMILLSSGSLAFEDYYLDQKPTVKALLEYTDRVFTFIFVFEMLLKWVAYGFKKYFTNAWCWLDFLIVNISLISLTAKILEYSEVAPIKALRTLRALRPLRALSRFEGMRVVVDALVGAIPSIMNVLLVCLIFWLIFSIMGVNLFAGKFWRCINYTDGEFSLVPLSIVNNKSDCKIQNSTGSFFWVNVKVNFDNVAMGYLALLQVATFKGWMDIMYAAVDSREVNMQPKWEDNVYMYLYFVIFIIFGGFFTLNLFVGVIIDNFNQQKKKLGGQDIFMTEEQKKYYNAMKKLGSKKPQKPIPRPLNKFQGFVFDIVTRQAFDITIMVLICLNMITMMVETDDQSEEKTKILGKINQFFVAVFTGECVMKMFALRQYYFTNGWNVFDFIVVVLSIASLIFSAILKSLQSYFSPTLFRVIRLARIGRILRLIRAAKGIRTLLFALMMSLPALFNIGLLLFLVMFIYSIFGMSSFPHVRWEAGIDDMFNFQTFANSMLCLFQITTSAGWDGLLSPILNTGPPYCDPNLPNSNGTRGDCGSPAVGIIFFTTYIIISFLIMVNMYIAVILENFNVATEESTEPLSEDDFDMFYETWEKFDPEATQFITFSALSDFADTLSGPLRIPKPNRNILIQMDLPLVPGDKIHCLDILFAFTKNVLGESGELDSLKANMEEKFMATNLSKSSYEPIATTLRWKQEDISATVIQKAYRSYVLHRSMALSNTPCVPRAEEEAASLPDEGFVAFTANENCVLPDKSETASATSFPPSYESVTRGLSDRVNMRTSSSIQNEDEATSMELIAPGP

The assay concerns the target NaV 1.8 channel (Homo sapiens, UniProt Q9Y5Y9). As to the kind of experiment: Activity against NaV 1.8 channel (optical membrane potential assay). It counts as cell-based. The method, boiled down: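 Cells expressing the NaV of interest loaded with CC2-DMPE (30 min, room temperature) then DiSBAC2(3) with ABSCl and veratridine; compound incubated 20–30 min. Depolarization triggered by sodium add-back and read on VIPR as 460/580 nm FRET ratio (Rf/Ri), normalized to tetracaine and untreated controls.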
Regarding `CCC(C)(O)CC(=O)N1CCN(c2nc(-c3ccccc3O)nc3cc(C)ccc23)CC1` (centres unmarked) [Example 181], the pIC50 was under 5.00.
Regarding `Cc1ccc2c(N3CCN(C(=O)O[C@@H]4CCOC4)CC3)nc(-c3ccccc3O)nc2c1` [Example 182], the pIC50 was 5.00 to 5.70.
As for `Cc1ccc2c(N3CCN(C(=O)O[C@H]4CCOC4)CC3)nc(-c3ccccc3O)nc2c1` [Example 183], the pIC50 is 5.00 to 5.70.
Then `Cc1ccc2c(N3CCN(C(=O)OCC4CCOC4)CC3)nc(-c3ccccc3O)nc2c1` (centres unmarked) [Example 184], with 5.00 to 5.70; and `Cc1ccc2c(N3CCN(C(=O)OCC4CCCO4)CC3)nc(-c3ccccc3O)nc2c1` (centres unmarked) [Example 185], with 5.00 to 5.70; and `Cc1ccc2c(N3CCN(C(=O)C(=O)C(C)C)CC3)nc(-c3ccccc3O)nc2c1` [Example 186], with over 5.70.
Take `Cc1ccc2c(N3CCN(C(=O)[C@H]4CCCO4)CC3)nc(-c3ccccc3O)nc2c1` [Example 187]: the pIC50 was 5.00 to 5.70.
As for `CC(C)=CC(O)C(=O)N1CCN(c2nc(-c3ccccc3O)nc3cc(C)ccc23)CC1` (centres unmarked) [Example 189], the pIC50 is 5.00 to 5.70.
Then `Cc1ccc2c(N3CCN(C(=O)O[C@H]4COC5OCC[C@@H]54)CC3)nc(-c3ccccc3O)nc2c1` (some centres unmarked) [Example 190], with 5.00 to 5.70; and `CC(C)(C)C[C@@H](O)C(=O)N1CCN(c2nc(-c3ccccc3O)nc3ccccc23)CC1` [Example 191], with over 5.70; and `O=C(C1CC1)N1CCN(c2nc(-c3ccccc3O)nc3ccc(F)cc23)CC1` [Example 192], with 5.00 to 5.70.
Take `Cc1ccc2c(N3CCN(C(=O)OCC(C)C)CC3)nc(-c3c(C)cccc3O)nc2c1` [Example 193]: the pIC50 was over 5.70.
On to `CCOC(=O)C(=O)N1CCN(c2nc(-c3ccccc3O)nc3cc(C)ccc23)CC1` [Example 195], for which the pIC50 was over 5.70.
Turning to `Cc1ccc2c(N3CCN(C(=O)C(C)(C)C)CC3)nc(-c3ccccc3O)nc2c1` [Example 196], the pIC50 is over 5.70.
Turning to `Cc1ccc2c(N3CCN(C(=O)OCC(C)(C)C)CC3)nc(-c3ccccc3O)nc2c1` [Example 197], the pIC50 was over 5.70.
With `Cc1ccc2c(N3CCCC(C(=O)NCc4cccnc4)C3)nc(-c3ccccc3O)nc2c1` (centres unmarked) [Example 201, 1-(2-(2-Hydroxyphenyl)-7-methylquinazolin-4-yl)-N-((pyridin-3-yl)methyl)piperidine-3-carboxamide], the pIC50 is 5.00 to 5.70.
Take `Cc1ccc2c(N3CCC[C@H](NC(=O)O[C@@H]4CCOC4)C3)nc(-c3ccccc3O)nc2c1` [Example 203, (R)-Tetrahydrofuran-3-yl (S)-1-(2-(2-hydroxyphenyl)-7-methylquinazolin-4-yl)piperidin-3-ylcarbamate]: the pIC50 is under 5.00.
As to `Cc1ccc2c(N3CCC[C@H](NC(=O)O[C@H]4CCOC4)C3)nc(-c3ccccc3O)nc2c1` [Example 204, (S)-Tetrahydrofuran-3-yl (S)-1-(2-(2-hydroxyphenyl)-7-methylquinazolin-4-yl)piperidin-3-ylcarbamate], the pIC50 was under 5.00.
Consider `Cc1ccc2c(N3CCC[C@H](NC(=O)[C@H]4CCCO4)C3)nc(-c3ccccc3O)nc2c1` [Example 205, (2R)-Tetrahydro-N—((S)-1-(2-(2-hydroxyphenyl)-7-methylquinazolin-4-yl)piperidin-3-yl)furan-2-carboxamide], for which the pIC50 is under 5.00.
Then `Cc1ccc2c(N3CCC[C@@H](NC(=O)[C@H]4CCCO4)C3)nc(-c3ccccc3O)nc2c1` [Example 206, (2R)-Tetrahydro-N—((R)-1-(2-(2-hydroxyphenyl)-7-methylquinazolin-4-yl)piperidin-3-yl)furan-2-carboxamide], with 5.00 to 5.70; and `Cc1ccc2c(N3CCC[C@@H](NC(=O)O[C@@H]4CCOC4)C3)nc(-c3ccccc3O)nc2c1` [Example 207, (R)-Tetrahydrofuran-3-yl (R)-1-(2-(2-hydroxyphenyl)-7-methylquinazolin-4-yl)piperidin-3-ylcarbamate], with over 5.70.
In the case of `Cc1ccc2c(N3CCC[C@@H](NC(=O)O[C@H]4CCOC4)C3)nc(-c3ccccc3O)nc2c1` [Example 208, (S)-Tetrahydrofuran-3-yl (R)-1-(2-(2-hydroxyphenyl)-7-methylquinazolin-4-yl)piperidin-3-ylcarbamate], the pIC50 is over 5.70.
`Cc1ccc2c(N3CCCC(CNC(=O)O[C@@H]4CCOC4)C3)nc(-c3ccccc3O)nc2c1` (stereo partly drawn) [Example 210, (R)-Tetrahydrofuran-3-yl (1-(2-(2-hydroxyphenyl)-7-methylquinazolin-4-yl)piperidin-3-yl)methylcarbamate]: the pIC50 was 5.00 to 5.70.
As for `Cc1ccc2c(N3CCCC(CNC(=O)O[C@H]4CCOC4)C3)nc(-c3ccccc3O)nc2c1` (stereo partly drawn) [Example 211, (S)-Tetrahydrofuran-3-yl (1-(2-(2-hydroxyphenyl)-7-methylquinazolin-4-yl)piperidin-3-yl)methylcarbamate], the pIC50 was under 5.00.
Turning to `Cc1ccc2c(N3CCCC(CNC(=O)C4CC4)C3)nc(-c3ccccc3O)nc2c1` (centres unmarked) [Example 212, N—((1-(2-(2-Hydroxyphenyl)-7-methylquinazolin-4-yl)piperidin-3-yl)methyl)cyclopropanecarboxamide], the pIC50 is under 5.00.
Then `O=C(NC1CCN(c2nc(-c3c(O)cccc3Cl)nc3ccccc23)CC1)[C@H]1CCCO1` [Example 213, (2R)—N—(1-(2-(2-Chloro-6-hydroxyphenyl)quinazolin-4-yl)piperidin-4-yl)-tetrahydrofuran-2-carboxamide], with under 5.00.
Then `Cc1ccc2c(N3CCC[C@@H](CNC(=O)O[C@@H]4CCOC4)C3)nc(-c3ccccc3O)nc2c1` [Example 214, (R)-Tetrahydrofuran-3-yl ((S)-1-(2-(2-hydroxyphenyl)-7-methylquinazolin-4-yl)piperidin-3-yl)methylcarbamate], with under 5.00; and `Cc1ccc2c(N3CCC[C@@H](CNC(=O)O[C@H]4CCOC4)C3)nc(-c3ccccc3O)nc2c1` [Example 215, (S)-Tetrahydrofuran-3-yl ((S)-1-(2-(2-hydroxyphenyl)-7-methylquinazolin-4-yl)piperidin-3-yl)methylcarbamate], with under 5.00; and `Cc1ccc2c(N3CCC[C@H](CNC(=O)O[C@@H]4CCOC4)C3)nc(-c3ccccc3O)nc2c1` [Example 216, (R)-Tetrahydrofuran-3-yl ((R)-1-(2-(2-hydroxyphenyl)-7-methylquinazolin-4-yl)piperidin-3-yl)methylcarbamate], with under 5.00.
`Cc1ccc2c(N3CCC[C@H](CNC(=O)O[C@H]4CCOC4)C3)nc(-c3ccccc3O)nc2c1` [Example 217, (S)-Tetrahydrofuran-3-yl ((R)-1-(2-(2-hydroxyphenyl)-7-methylquinazolin-4-yl)piperidin-3-yl)methylcarbamate]: the pIC50 is under 5.00.
As to `Cc1ccc2c(N3CCC(NC(=O)[C@H]4CCCO4)CC3)nc(-c3c(C)cccc3O)nc2c1` [Example 218, (2R)-Tetrahydro-N-(1-(2-(2-hydroxy-6-methylphenyl)-7-methylquinazolin-4-yl)piperidin-4-yl)furan-2-carboxamide], the negative logarithm of the IC50 (pIC50) was 5.00 to 5.70.
As for `Cc1ccc2c(N3CCC(NC(=O)OCC4CCCCO4)CC3)nc(-c3ccccc3O)nc2c1` (centres unmarked) [Example 219, {1-[2-(2-Hydroxy-phenyl)-7-methyl-quinazolin-4-yl]-piperidin-4-yl}-carbamic acid tetrahydro-pyran-2-ylmethyl ester], the pIC50 is over 5.70.
Then `Cc1ccc2c(N3CCC(NC(=O)C4CCOCC4)CC3)nc(-c3ccccc3O)nc2c1` [Example 220, Tetrahydro-N-(1-(2-(2-hydroxyphenyl)-7-methylquinazolin-4-yl)piperidin-4-yl)-2H-pyran-4-carboxamide], with under 5.00.
Consider `Cc1ccc2c(N3CCC(NC(=O)CC4CCOCC4)CC3)nc(-c3ccccc3O)nc2c1` [Example 221, 2-(Tetrahydro-2H-pyran-4-yl)-N-(1-(2-(2-hydroxyphenyl)-7-methylquinazolin-4-yl)piperidin-4-yl)acetamide], for which the pIC50 was under 5.00.
Then `Cc1ccc2c(N3CCC(NC(=O)COC4CC(C)CCC4C(C)C)CC3)nc(-c3ccccc3O)nc2c1` (centres unmarked) [Example 222, 2-(2-Isopropyl-5-methylcyclohexyloxy)-N-(1-(2-(2-hydroxyphenyl)-7-methylquinazolin-4-yl)piperidin-4-yl)acetamide], with under 5.00.
With `Cc1ccc2c(N3CCC(NC(=O)CCc4ccccn4)CC3)nc(-c3ccccc3O)nc2c1` [Example 223, N-(1-(2-(2-Hydroxyphenyl)-7-methylquinazolin-4-yl)piperidin-4-yl)-3-(pyridin-2-yl)propanamide], the pIC50 is under 5.00.
`O=C(NC1CCN(c2nc(-c3ccccc3O)nc3ccc(F)cc23)CC1)[C@H]1CCCO1` [Example 224, (2R)—N-(1-(6-Fluoro-2-(2-hydroxyphenyl)quinazolin-4-yl)piperidin-4-yl)-tetrahydrofuran-2-carboxamide]: the negative-log IC50 (pIC50) is under 5.00.
Turning to `Cc1ccc2c(N3CCC(NC(=O)CCc4cccnc4)CC3)nc(-c3ccccc3O)nc2c1` [Example 225, N-{1-[2-(2-Hydroxy-phenyl)-7-methyl-quinazolin-4-yl]-piperidin-4-yl}-3-pyridin-3-yl-propionamide], the pIC50 was under 5.00.
Consider `Cc1ccc2c(N3CCC[C@@H](CNC(=O)C4CC4)C3)nc(-c3ccccc3O)nc2c1` [Example 226, N—(((S)-1-(2-(2-Hydroxyphenyl)-7-methylquinazolin-4-yl)piperidin-3-yl)methyl)cyclopropanecarboxamide], for which the pIC50 is under 5.00.
Take `Cc1ccc2c(N3CCC(NC(=O)OCc4cccnc4)CC3)nc(-c3ccccc3O)nc2c1` [Example 227, (Pyridin-3-yl)methyl 1-(2-(2-hydroxyphenyl)-7-methylquinazolin-4-yl)piperidin-4-ylcarbamate]: the pIC50 is under 5.00.
Turning to `Cc1ccc2c(N3CCC(NC(=O)OCc4ccncc4)CC3)nc(-c3ccccc3O)nc2c1` [Example 228, (Pyridin-4-yl)methyl 1-(2-(2-hydroxyphenyl)-7-methylquinazolin-4-yl)piperidin-4-ylcarbamate], the pIC50 was under 5.00.

Usually pIC50 stands for −log10 of the IC50, conventionally taken in molar units.
